Results taken from patent US20230141603A1, “BENZODIAZEPINE DERIVATIVES AS GABA A GAMMA1 PAM” (Hoffmann-La Roche Inc., priority 2021, published 2023).

biological target: T1, h-GABAA α1β2γ1 (Homo sapiens, UniProt P14867+Q8N1C3); assay: Radioligand binding assay, [3H]RO7239181 competition, HEK293F membranes
T1 construct: expressed in transfected cells; host or cells: HEK293F cells (ThermoFisher R79007), membranes
T1 sequence (P14867 28-456): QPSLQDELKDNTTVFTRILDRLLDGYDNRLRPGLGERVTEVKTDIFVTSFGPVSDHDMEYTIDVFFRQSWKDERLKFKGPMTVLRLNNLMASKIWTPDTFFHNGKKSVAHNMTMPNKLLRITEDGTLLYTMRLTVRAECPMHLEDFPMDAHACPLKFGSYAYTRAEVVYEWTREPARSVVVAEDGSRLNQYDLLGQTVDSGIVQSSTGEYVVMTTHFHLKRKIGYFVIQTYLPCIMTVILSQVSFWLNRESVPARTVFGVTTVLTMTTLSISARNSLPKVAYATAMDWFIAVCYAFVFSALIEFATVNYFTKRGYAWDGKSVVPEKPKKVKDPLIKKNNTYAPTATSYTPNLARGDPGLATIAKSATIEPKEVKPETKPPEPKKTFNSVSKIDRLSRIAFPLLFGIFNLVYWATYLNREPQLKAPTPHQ
T1 sequence (P47870 25-512 partner limits assumed): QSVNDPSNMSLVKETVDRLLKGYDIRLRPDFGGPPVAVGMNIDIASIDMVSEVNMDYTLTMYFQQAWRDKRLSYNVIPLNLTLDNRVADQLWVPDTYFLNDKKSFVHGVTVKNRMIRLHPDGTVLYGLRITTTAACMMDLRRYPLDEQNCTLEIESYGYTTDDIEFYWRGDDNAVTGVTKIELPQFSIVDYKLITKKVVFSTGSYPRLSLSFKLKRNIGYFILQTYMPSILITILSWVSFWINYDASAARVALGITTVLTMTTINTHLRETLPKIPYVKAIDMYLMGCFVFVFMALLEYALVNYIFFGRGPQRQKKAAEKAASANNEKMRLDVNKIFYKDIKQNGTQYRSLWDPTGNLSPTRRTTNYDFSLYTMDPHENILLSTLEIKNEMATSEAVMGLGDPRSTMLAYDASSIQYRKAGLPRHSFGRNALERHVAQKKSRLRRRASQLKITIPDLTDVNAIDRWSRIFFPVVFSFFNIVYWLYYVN
T1 sequence (Q8N1C3 36-465): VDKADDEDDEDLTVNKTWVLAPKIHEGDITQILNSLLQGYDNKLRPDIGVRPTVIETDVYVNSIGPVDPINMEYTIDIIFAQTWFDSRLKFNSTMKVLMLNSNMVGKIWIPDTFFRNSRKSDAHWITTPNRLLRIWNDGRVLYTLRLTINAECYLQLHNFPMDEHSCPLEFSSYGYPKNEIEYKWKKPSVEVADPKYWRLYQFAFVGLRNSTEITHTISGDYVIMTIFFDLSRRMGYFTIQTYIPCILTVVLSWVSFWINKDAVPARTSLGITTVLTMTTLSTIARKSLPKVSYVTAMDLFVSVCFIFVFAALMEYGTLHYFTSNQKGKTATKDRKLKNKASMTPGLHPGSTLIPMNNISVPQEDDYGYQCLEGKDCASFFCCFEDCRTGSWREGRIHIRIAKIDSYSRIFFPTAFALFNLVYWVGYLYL
Experimental: The affinity of compounds at GABAA γ1 subunit-containing receptors was measured by competition for [^3H]RO7239181 (67.3 Ci/mmol; Roche) binding to membranes from HEK293F cells (ThermoFisher R79007) expressing human (transiently transfected) receptors of composition […], α2β2γ1, α1β2γ1.
Harvested pellets from HEK293F cells expressing the different GABAA receptor subtypes were resuspended in Mannitol Buffer pH 7.2-7.4 (Mannitol 0.29M, Triethylamine 10 mM, Acetic acid 10 mM, EDTA 1 mM plus protease inhibitors (20 tablets Complete, Roche Diagnostics Cat. No. 05 056 489 001 per liter)), washed two times and then resuspended at 1:10 to 1:15 dilution in the same buffer. Cell disruption was performed by stirring the suspension in a Parr vessel #4637 at 435 psi for 15 minutes, and then the suspensions were centrifuged at 1000×g for 15 minutes at 4° C. (Beckman Avanti J-HC; rotor JS-4.2). The supernatant (S1) was transferred in a 21 Schott flask and the pellet (P1) was resuspended with Mannitol Buffer up to 175 ml. The resuspended pellet was transferred into a 250 ml Corning centrifugal beaker and centrifuged at 1500×g for 10 minutes at 4° C. (Beckman Avanti J-HC; rotor JS-4.2). The supernatant (S1) was then transferred in the 21 Schott flask and the pellet was discarded. The supernatants (S1) were centrifuged in 500 ml Beckman polypropylene centrifugal beaker at 15′000×g for 30 minutes at 4° C. (Beckman Avanti J-20 XP; rotor JLA-10.500). The pellet (P2) was resuspended with Mannitol Buffer 1:1 and frozen at −80° C. The supernatant (S2) was centrifuged in 100 ml Beckman polypropylene centrifugal tubes at 48000×g for 50 minutes at 4° C. (Beckman Avanti J-20 XP; rotor JA-18). The supernatant (S3) was discarded and the pellet (P3) was resuspended with 1:1 Mannitol Buffer. The P2 and P3 protein concentration was determined with the BIORAD Standard assay method with bovine serum albumin as standard and measured on the NANO-Drop 1000. The membrane suspension was aliquots (500 μl per tube) and stored at −80° C. until required. Membrane homogenates were resuspended and polytronised (Polytron PT1200E Kinematica AG) in Potassium Phosphate 10 mM, KCl 100 mM binding buffer at pH 7.4 to a final assay concentration determined with a previous experiment.
Assays were incubated to equilibrium for 1 hour at 4° C. and then, membranes were filtered onto unifilter (96-well white microplate with bonded GF/C filters preincubated 20-50 minutes in 0.3% Polyethylenimine) with a Filtermate 196 harvester (Packard BioScience) and washed 4 times with cold Potassium Phosphate 10 mM pH 7.4, KCl 100 mM binding buffer. After drying, filter-retained radioactivity was detected by liquid scintillation counting. Ki values were calculated using Excel-Fit (Microsoft) and are the means of two determinations.

Row | Compound | Ki [nM]
1 | Cc1nnc2n1-c1ccc(C(F)F)c(Cl)c1C(c1c(F)cccc1F)=NC2 [Example 25, 7-chloro-8-(difluoromethyl)-6-(2,6-difluorophenyl)-1-methyl-4H-[1,2,4]triazolo[4,3-a][1,4]benzodiazepine] | 68.6
2 | O=c1[nH]nc2n1-c1ccc(Br)c(Cl)c1C(c1ccccc1F)=NC2 [Example 26, 8-bromo-7-chloro-6-(2-fluorophenyl)-2,4-dihydro-[1,2,4]triazolo[4,3-a][1,4]benzodiazepin-1-one] | 24.1
3 | Fc1ccccc1C1=NCc2nnc(-c3cccnn3)n2-c2ccc(C(F)(F)F)c(Cl)c21 [Example 27, 7-chloro-6-(2-fluorophenyl)-1-pyridazin-3-yl-8-(trifluoromethyl)-4H-[1,2,4]triazolo[4,3-a][1,4]benzodiazepine] | 288
4 | Cn1cc(-c2nnc3n2-c2ccc(Cl)c(Cl)c2C(c2c(F)cccc2F)=NC3)cn1 [Example 28, 7,8-dichloro-6-(2,6-difluorophenyl)-1-(1-methylpyrazol-4-yl)-4H-[1,2,4]triazolo[4,3-a][1,4]benzodiazepine] | 12.6
5 | Fc1cccnc1C1=NCc2nncn2-c2ccc(Br)c(Cl)c21 [Example 29, 8-bromo-7-chloro-6-(3-fluoro-2-pyridyl)-4H-[1,2,4]triazolo[4,3-a][1,4]benzodiazepine] | 66.2
6 | Fc1cccc(F)c1C1=NCc2nncn2-c2ccc(I)c(Cl)c21 [Example 34, 7-chloro-6-(2,6-difluorophenyl)-8-iodo-4H-[1,2,4]triazolo[4,3-a][1,4]benzodiazepine] | 5.6
7 | Cl.NCc1nnc2n1-c1ccc(Br)c(Cl)c1C(c1c(F)cccc1F)=NC2 [Example 36, [8-bromo-7-chloro-6-(2,6-difluorophenyl)-4H-[1,2,4]triazolo[4,3-a][1,4]benzodiazepin-1-yl]methanamine hydrochloride] | 11.9
8 | Fc1cccc(F)c1C1=NCc2nnc(-c3cccnn3)n2-c2ccc(C(F)(F)F)c(Cl)c21 [Example 38, 7-chloro-6-(2,6-difluorophenyl)-1-pyridazin-3-yl-8-(trifluoromethyl)-4H-[1,2,4]triazolo[4,3-a][1,4]benzodiazepine] | 28
9 | Fc1cccc(F)c1C1=NCc2nnc(-c3cccnn3)n2-c2ccc(I)c(Cl)c21 [Example 39, 7-chloro-6-(2,6-difluorophenyl)-8-iodo-1-pyridazin-3-yl-4H-[1,2,4]triazolo[4,3-a][1,4]benzodiazepine] | 4.7
10 | Cc1nnc2n1-c1ccc(C(F)(F)F)c(Cl)c1C(c1c(F)cccc1F)=NC2 [Example 40, 7-chloro-6-(2,6-difluorophenyl)-1-methyl-8-(trifluoromethyl)-4H-[1,2,4]triazolo[4,3-a][1,4]benzodiazepine] | 20.8
11 | Cc1nnc2n1-c1ccc(I)c(Cl)c1C(c1c(F)cccc1F)=NC2 [Example 41, 7-chloro-6-(2,6-difluorophenyl)-8-iodo-1-methyl-4H-[1,2,4]triazolo[4,3-a][1,4]benzodiazepine] | 4.8
12 | Fc1cccc(F)c1C1=NCc2nnc(-c3cccnn3)n2-c2ccc(Br)c(Br)c21 [Example 42, 7,8-dibromo-6-(2,6-difluorophenyl)-1-pyridazin-3-yl-4H-[1,2,4]triazolo[4,3-a][1,4]benzodiazepine] | 7.2
13 | Fc1cccc(F)c1C1=NCc2nnc(-c3ccncn3)n2-c2ccc(Br)c(Br)c21 [Example 43, 7,8-dibromo-6-(2,6-difluorophenyl)-1-pyrimidin-4-yl-4H-[1,2,4]triazolo[4,3-a][1,4]benzodiazepine] | 8.4
14 | Clc1cccnc1C1=NCc2nnc(-c3ccncn3)n2-c2ccc(Br)c(Cl)c21 [Example 44, 8-bromo-7-chloro-6-(3-chloro-2-pyridyl)-1-pyrimidin-4-yl-4H-[1,2,4]triazolo[4,3-a][1,4]benzodiazepine] | 11.5
15 | Fc1cccnc1C1=NCc2nnc(-c3cccnn3)n2-c2ccc(Br)c(Cl)c21 [Example 45, 8-bromo-7-chloro-6-(3-fluoro-2-pyridyl)-1-pyridazin-3-yl-4H-[1,2,4]triazolo[4,3-a][1,4]benzodiazepine] | 54.4
